Assay results as given in PMC11820866, “Angiotensin-Converting Enzyme (ACE)-Inhibitor Activity of Novel Peptides Derived from Porcine Liver and Placenta” (Molecules, 2025).
Like-named read-outs stand apart in the source and are kept apart here. One block for each compound: values may come before it. Residues, ends and D or L forms follow the SMILES beside them. No end group written: not given here.

Experiments:
ACE = system: ACE; set-up: method as in 14 sources, ref [13, 14] = [13]; PMID 16218651; doi:10.1021/jf0508908; 13. Vercruysse L. Van Camp J. Smagghe G. ACE inhibitory peptides derived from enzymatic hydrolysates of animal muscle protein: A review J. Agric. Food Chem. 2005 53 8106 8115 10.1021/jf0508908 1621865 || [14]; PMID 22061507; doi:10.1016/S0309-1740(00)00108-X; 14. Arihara K. Nakashima Y. Mukai T. Ishikawa S. Itoh M. Peptide inhibitors for angiotensin I-converting enzyme from enzymatic hydrolysates of porcine skeletal muscle proteins Meat Sci. 2001 57 319 32 ||| ref [13, 15] = [13]; PMID 16218651; doi:10.1021/jf0508908; 13. Vercruysse L. Van Camp J. Smagghe G. ACE inhibitory peptides derived from enzymatic hydrolysates of animal muscle protein: A review J. Agric. Food Chem. 2005 53 8106 8115 10.1021/jf0508908 1621865 || [15]; doi:10.1046/j.1344-3941.2003.00086.x; 15. Katayama K. Tomatsu M. Fuchu H. Sugiyama M. Kawahara S. Yamauchi K. Kawamura Y. Muguruma M. Purification and characterization of an angiotensin I-converting enzyme inhibitory peptide derived from ||| ref [16] = [16]; doi:10.1016/j.foodchem.2008.09.081; 16. Muguruma M. Ahhmed A.M. Katayama K. Kawahara S. Maruyama M. Nakamura T. Identification of pro-drug type ACE inhibitory peptide sourced from porcine myosin B: Evaluation of its antihypertensive eff ||| ref [17] = [17]; PMID 1368684; 17. Miyoshi S. Ishikawa H. Kaneko T. Fukui F. Tanaka H. Maruyama S. Structures and activity of angiotensin-converting enzyme inhibitors in an α-zein hydrolysate Agric. Biol. Chem. 1991 55 1313 1318 13 ||| ref [17, 18] = [17]; PMID 1368684; 17. Miyoshi S. Ishikawa H. Kaneko T. Fukui F. Tanaka H. Maruyama S. Structures and activity of angiotensin-converting enzyme inhibitors in an α-zein hydrolysate Agric. Biol. Chem. 1991 55 1313 1318 13 || [18]; PMID 16448176; doi:10.1021/jf051263l; 18. Wu J. Aluko R.E. Nakai S. Structural requirements of angiotensin i-converting enzyme inhibitory peptides: Quantitative structure−activity relationship study of di- and tripeptides J. Agric. Food C ||| ...; details: cited from earlier work; for IC50: porcine-derived peptides, literature, read-out: ACE Inhibition IC50; for ACE inhibition (in words): fish skin gelatine hydrolysate peptides, ref [26]
[1] = Solubility of synthetic peptides in aqueous solution; format: physicochemical; details: in words; stocks 10 mM in deionised water
Description: Based on the in silico activity prediction, four synthetic peptides were ordered from Peptide Synthetics (Protein Peptide Research Ltd., Fareham, UK). They were supplied as 10 mg aliquots of lyophilised powders. The synthetic peptides were dissolved in deionised water to produce 10 mM stock solutions: • FWG: 10 mg/mL = 24.48 mM therefore 10 mM = 4.085 mg/mL • MFLG: 10 mg/mL = 21.43 mM therefore10 mM = 4.666 mg/mL • […]: 10 mg/mL = 10.75 mM therefore 10 mM = 9.302 mg/mL • FFNDA: 10 mg/mL = 16.32 mM or10 mM = 6.127 mg/mL

ACE from rabbit lung = biological target: T1, ACE from rabbit lung (Oryctolagus cuniculus, UniProt P12822); assay: ACE-inhibition assay (modified Cushman and Cheung, HHL substrate, HPLC); format: biochemical; details: 0.5 mM HHL, TRIS pH 8.3, 37 °C 30 min, HPLC-UV 228 nm, calculated from % inhibition at 0.1, 1 (2) mM, this study
T1 construct: ACE from rabbit lung (purchased from Sigma Aldrich 2U equal to 1 mg of protein); purchased Sigma Aldrich; host or cells: rabbit lung
T1 sequence (P12822 34-1310): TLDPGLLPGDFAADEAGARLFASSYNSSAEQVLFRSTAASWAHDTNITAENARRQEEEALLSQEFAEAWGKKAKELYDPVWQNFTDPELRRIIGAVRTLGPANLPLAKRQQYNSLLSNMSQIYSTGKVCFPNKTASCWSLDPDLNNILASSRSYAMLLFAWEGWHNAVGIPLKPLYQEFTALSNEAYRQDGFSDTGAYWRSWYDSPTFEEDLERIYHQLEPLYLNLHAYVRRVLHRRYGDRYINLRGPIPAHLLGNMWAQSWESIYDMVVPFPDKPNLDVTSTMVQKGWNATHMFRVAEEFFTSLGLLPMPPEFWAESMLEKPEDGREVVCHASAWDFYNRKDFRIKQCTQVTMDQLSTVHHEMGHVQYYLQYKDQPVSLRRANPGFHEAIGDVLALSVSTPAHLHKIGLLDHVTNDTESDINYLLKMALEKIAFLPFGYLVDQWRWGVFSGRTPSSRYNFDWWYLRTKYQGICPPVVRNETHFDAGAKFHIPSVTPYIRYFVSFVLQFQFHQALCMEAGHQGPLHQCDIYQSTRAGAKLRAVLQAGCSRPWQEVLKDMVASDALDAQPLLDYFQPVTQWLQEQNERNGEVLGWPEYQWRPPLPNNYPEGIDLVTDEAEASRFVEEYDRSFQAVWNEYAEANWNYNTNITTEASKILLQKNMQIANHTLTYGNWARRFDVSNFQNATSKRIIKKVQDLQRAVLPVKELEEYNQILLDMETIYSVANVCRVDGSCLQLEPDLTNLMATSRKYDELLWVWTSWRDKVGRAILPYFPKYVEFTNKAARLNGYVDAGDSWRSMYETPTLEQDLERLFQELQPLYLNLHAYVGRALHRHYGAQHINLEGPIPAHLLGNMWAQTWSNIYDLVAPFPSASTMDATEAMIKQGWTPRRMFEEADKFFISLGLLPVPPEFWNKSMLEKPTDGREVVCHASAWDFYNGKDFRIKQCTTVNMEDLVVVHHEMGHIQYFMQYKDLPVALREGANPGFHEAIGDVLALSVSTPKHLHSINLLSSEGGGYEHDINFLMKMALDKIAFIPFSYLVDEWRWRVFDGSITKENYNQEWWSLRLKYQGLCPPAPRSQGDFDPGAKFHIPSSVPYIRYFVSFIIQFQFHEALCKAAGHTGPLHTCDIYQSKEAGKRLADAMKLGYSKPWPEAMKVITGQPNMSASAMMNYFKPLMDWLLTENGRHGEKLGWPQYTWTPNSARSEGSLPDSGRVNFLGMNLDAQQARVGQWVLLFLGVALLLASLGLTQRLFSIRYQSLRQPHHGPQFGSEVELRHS

Compound: VKKVLGNP [literature porcine peptide, myosin (light chain)]
IC50 (ACE; ref [20],[21]): 29 µM

Compound: VKAGF [literature porcine peptide, actin]
IC50 (ACE; ref [16]): 20 µM

Solubility in aqueous solution [1]: perhaps less soluble
IC50 (ACE from rabbit lung): 0.83 mM
Compound: FFNDA [FFNDA]

Solubility in aqueous solution [1]: readily soluble in aqueous solution
IC50 (ACE from rabbit lung): 0.07 mM
Compound: CSCC[C@H](N)C(=O)N[C@@H](Cc1ccccc1)C(=O)N[C@@H](CC(C)C)C(=O)NCC(=O)O [MFLG] (H-MFLG-OH)

Compound: VLAQYK [peptide derived from meat waste]
ACE-inhibitory activity (in words) (ACE; peptide derived from meat waste, ref [7]): greatest ACE-inhibitory activity

Compound: GIPGAP [peptide from hydrolysates of thornback ray skin]
ACE inhibition (in words) (ACE): most active ACE inhibitor

Compound: KAPVA [literature porcine peptide, titin]
IC50 (ACE; ref [20],[24]): 47 µM

Compound: KRQKYDI [literature porcine peptide, troponin]
IC50 (ACE; ref [17],[20]): 27 µM

Compound: MNPPK [literature porcine peptide, myosin]
IC50 (ACE; ref [13],[14]): 946 µM

Compound: RMLGQTP [literature porcine peptide, troponin C]
IC50 (ACE; ref [13],[15]): 503 µM

Compound: PTPVP [literature porcine peptide, titin]
IC50 (ACE; ref [20],[24]): 256 µM

Compound: KRVITY [literature porcine peptide, myosin]
IC50 (ACE; ref [16]): 6 µM

Compound: RMLGQTPTK [literature porcine peptide, troponin C]
IC50 (ACE; ref [13],[15]): 34 µM

Solubility in aqueous solution [1]: perhaps less soluble
IC50 (ACE from rabbit lung): 1.16 mM
Compound: SDPPLVFVG

Compound: ITTNP [literature porcine peptide, myosin]
IC50 (ACE; ref [13],[14]): 549 µM

Compound: LLMLDNDLPP
ACE inhibition (in words) (ACE): potent non-competitive ACE inhibition
